Article PMC8236845
Structures can show the parent of a compound that is named as a salt. Numbered stars: 1 amine (or outer) side, 2 acyl side, 3 side chain; on linkers, the order of the positions; unused ones are H or OH. Bridge positions count the residues as written; N and C are the ends. Square brackets hold non-standard residues; d marks the D form. Peptide text beside a SMILES is read from it. * marks the point of attachment. pTerphenylCO(4''-OnC5H11) = CCCCCOc1ccc(-c2ccc(-c3ccc(C(=O)*)cc3)cc2)cc1; Orn(4R-OH,5R-OH) = O=C([C@H](C[C@@H](O)[C@@H](O)N[*:3])N[*:1])[*:2]; hTyr(3S-OH,4S-OH) = N[C@H](C(=O)O)[C@H](O)[C@@H](O)c1ccc(O)cc1; Pro(3S-OH,4S-Me) = C[C@H]1CN[C@H](C(=O)O)[C@H]1O; Hyp = O=C(O)[C@@H]1C[C@@H](O)CN1

Target: binding of recombinant, trimeric SARS-CoV-2 spike protein to recombinant human ACE2 (Severe acute respiratory syndrome coronavirus 2, UniProt P0DTC2, K986P/R682G/R683S/R685S/V987P)
Experiment: biochemical
Set-up: species or system SARS-CoV-2 / human

Structure (SMILES) | % Inhibition [%] | also measured
CCN(CC)Cc1cc(Nc2ccnc3cc(Cl)ccc23)ccc1O [Amodiaquine hydrochloride] | 90 | 
CCCCCOc1ccc(-c2ccc(-c3ccc(C(=O)N[C@H]4C[C@@H](O)[C@@H](O)NC(=O)[C@@H]5[C@@H](O)[C@@H](C)CN5C(=O)[C@H]([C@@H](C)O)NC(=O)[C@H]([C@H](O)[C@@H](O)c5ccc(O)cc5)NC(=O)[C@@H]5C[C@@H](O)CN5C(=O)[C@H]([C@@H](C)O)NC4=O)cc3)cc2)cc1 [Anidulafungin] ({pTerphenylCO(4''-OnC5H11)}-[Orn(4R-OH,5R-OH)]T[Hyp][hTyr(3S-OH,4S-OH)]T[Pro(3S-OH,4S-Me)]; lactam 1-C) | 99 | 
CCOc1cc([C@@H](CS(C)(=O)=O)N2C(=O)c3cccc(NC(C)=O)c3C2=O)ccc1OC [Apremilast (CC-10004), Apremilast] | 96 | 
C[C@@H](O[C@H]1OCCN(Cc2n[nH]c(=O)[nH]2)[C@H]1c1ccc(F)cc1)c1cc(C(F)(F)F)cc(C(F)(F)F)c1 [Aprepitant] | 94 | 
CCOC(=O)c1c(CSc2ccccc2)n(C)c2cc(Br)c(O)c(CN(C)C)c12.Cl [Arbidol HCl] | 95 | 
COc1ccc(CN=c2[nH]c(N3CCC[C@H]3CO)ncc2C(=O)NCc2ncccn2)cc1Cl [Avanafil] | 99 | 
CC[C@@]1(O)C(=O)OCc2c1cc1n(c2=O)Cc2c-1nc1ccccc1c2CCNC(C)C [Belotecan] |  | inhibition of spike-ACE2 binding in the screen: did not inhibit
O=C(O)CCCC[C@@H]1SC[C@@H]2NC(=O)N[C@@H]21 [Biotin (Vitamin B7), Biotin] | 91 | 
CO[C@H]1C(=O)[C@]2(C)[C@@H](OC)C[C@H]3OC[C@@]3(OC(C)=O)[C@H]2[C@H](OC(=O)c2ccccc2)[C@]2(O)C[C@H](OC(=O)[C@H](O)[C@@H](NC(=O)OC(C)(C)C)c3ccccc3)C(C)=C1C2(C)C [Cabazitaxel] | 86 | 
CO/N=C(\C(=O)N[C@@H]1C(=O)N2C(C(=O)OCOC(=O)C(C)(C)C)=C(/C=C\c3scnc3C)CS[C@H]12)c1csc(N)n1 [Cefditoren Pivoxil] | 96 | 
CON=C(C(=O)NC1C(=O)N2C(C(=O)OCOC(=O)C(C)(C)C)=C(C)CSC12)c1csc(N)n1 (stereo not shown) [Cefetamet Pivoxil Hydrochloride] | 94 | 
Cc1ccc(-c2cc(C(F)(F)F)nn2-c2ccc(S(N)(=O)=O)cc2)cc1 [Celecoxib] | 93 | IC50: 61.5 µM
COc1ccc2cc1Oc1ccc(cc1)C[C@H]1c3c(cc4c(c3Oc3cc5c(cc3OC)CCN(C)[C@@H]5C2)OCO4)CCN1C [Cepharanthine] | 94 | 
O=C(O)c1cn(C2CC2)c2cc(N3CCNCC3)c(F)cc2c1=O [Ciprofloxacin Hydrochloride Hydrate] | 93 | 
C[C@@H](Oc1cc(-c2cnn(C3CCNCC3)c2)cnc1N)c1c(Cl)ccc(F)c1Cl [Crizotinib (PF-02341066), Crizotinib] |  | % Inhibition, Screen: 55%
CN(C)c1ccc(C(=C2C=CC(=[N+](C)C)C=C2)c2ccc(N(C)C)cc2)cc1 [Crystal Violet] | 98 | 
COC(=O)N[C@H](C(=O)N1CCC[C@H]1c1nc(-c2ccc(-c3ccc(-c4c[nH]c([C@@H]5CCCN5C(=O)[C@@H](NC(=O)OC)C(C)C)n4)cc3)cc2)c[nH]1)C(C)C [Daclatasvir Dihydrochloride] | 97 | 
COC(=O)N[C@H](C(=O)N1CCC[C@H]1c1nc(-c2ccc(-c3ccc(-c4c[nH]c([C@@H]5CCCN5C(=O)[C@@H](NC(=O)OC)C(C)C)n4)cc3)cc2)c[nH]1)C(C)C [Daclatasvir] | 99 | 
Cc1nc(Nc2ncc(C(=O)Nc3c(C)cccc3Cl)s2)cc(N2CCN(CCO)CC2)n1.Cl [Dasatinib HCl] | 98 | EC50 (read-out: EC50 (corrected)): 65.9 µM
CN1C[C@H](C(=O)N[C@]2(C)O[C@@]3(O)[C@@H]4CCCN4C(=O)[C@H](Cc4ccccc4)N3C2=O)C[C@@H]2c3cccc4[nH]cc(c34)C[C@H]21 [Dihydroergotamine Mesylate] | 94 | 
